Some test systems named below: UACC-257; CCRF-CEM; M14; SK-OV-3; BT-549; SW-620; HCT-15; U-251; MOLT-4; NCI-H23; HL-60; SF-268; MDA-MB-435; Malme-3M; T47D; RXF 393; SK-MEL-2; UACC-62; SF-539; NCI-H460.
Common to all, as to assay: NCI-60 cell line screen, 48 h

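These data come from cells grown in 96-well plates and exposed to compound for 48 hours at five concentrations. GI50 = concentration required for 50% inhibition of growth.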 Calls of active or inactive are those of the source. Cut-off read from the data, not from the text of the source: active = GI50 up to about 1.1 µM and inactive = higher. Bounds are passed on as bounds.

Take `Cc1ccsc1/C=N/Nc1cnccn1`: the GI50 in the experiment on UACC-257, in the experiment on CCRF-CEM, in the experiment on M14, in the experiment on SK-OV-3, in the experiment with BT-549 and in the experiment with SW-620 was > 100 µM (inactive) in each case. The GI50 in the experiment with HCT-15 was above 100 µM; in the experiment on U-251 it was > 100 µM (inactive); with MOLT-4 it was 78.7 µM (inactive); in the experiment with NCI-H23, > 100 µM (inactive); in the experiment with HL-60, 35.9 µM (inactive); in the experiment with SF-268, > 100 µM (inactive). The GI50 in the experiment on MDA-MB-435, in the experiment with Malme-3M, in the experiment with T47D, in the experiment with RXF 393, in the experiment with SK-MEL-2 and in the experiment on UACC-62 was > 100 µM (inactive) throughout.

For the molecule `O=C(O)CSCC(=O)c1ccccc1`, the GI50 in the experiment on UACC-257, with M14, in the experiment on SK-OV-3, in the experiment on BT-549, with SF-539 and with SW-620 was > 100 µM (inactive) throughout. The GI50 is > 100 µM (inactive) in the experiment with NCI-H460; above 100 µM in the experiment on HCT-15; > 100 µM (inactive) in the experiment with U-251; > 100 µM (inactive) with MOLT-4; > 100 µM (inactive) with NCI-H23; > 100 µM (inactive) in the experiment on HL-60. In addition, the GI50 in the experiment on SF-268, with MDA-MB-435, with Malme-3M, in the experiment with T47D, with RXF 393 and in the experiment on SK-MEL-2 was > 100 µM (inactive) throughout. Besides, the GI50 in the experiment with UACC-62 is > 100 µM (inactive).

For `[O-][Cl+3]([O-])([O-])[O-].[O-][Cl+3]([O-])([O-])[O-].c1ccn2c(N3CCOCC3)[n+]3c4ccccc4[n+]4c(N5CCOCC5)n5ccccc5c4c3c2c1`, the GI50 is 68.9 µM (inactive) in the experiment on UACC-257; > 100 µM (inactive) in the experiment on CCRF-CEM; > 100 µM (inactive) with M14; > 100 µM (inactive) in the experiment with BT-549; 65.3 µM (inactive) in the experiment with SF-539; > 100 µM (inactive) in the experiment on SW-620. Further, the GI50 in the experiment with NCI-H460 was > 100 µM (inactive); in the experiment with HCT-15 it was above 100 µM; in the experiment with U-251 it was 50.6 µM (inactive); with MOLT-4, > 100 µM (inactive); in the experiment with NCI-H23, > 100 µM (inactive); in the experiment on HL-60, 71.6 µM (inactive). Also, the GI50 with SF-268 was 19 µM (inactive); with MDA-MB-435 it was > 100 µM (inactive); in the experiment with Malme-3M, 66.2 µM (inactive); with T47D, > 100 µM (inactive); in the experiment with RXF 393, > 100 µM (inactive); with SK-MEL-2, > 100 µM (inactive). In the experiment on UACC-62, the GI50 was > 100 µM (inactive).

As for `CN(C)c1ccc(/C=C(\NC(=O)c2ccccc2)C2NC(Cc3c[nH]c4ccccc34)C(=O)O2)cc1` (stereo not given), the GI50 is 40.6 µM (inactive) with UACC-257; 8.91 µM (inactive) with CCRF-CEM; 42.2 µM (inactive) in the experiment on M14; > 59.4 µM (inactive) in the experiment on SK-OV-3; 12.1 µM (inactive) with BT-549; 9.42 µM (inactive) in the experiment on SW-620. Besides, the GI50 with NCI-H460 was 3.19 µM (inactive); in the experiment with HCT-15, 14.3 µM; in the experiment on U-251 it was 4.49 µM (inactive); in the experiment on MOLT-4, 16.6 µM (inactive); with NCI-H23 it was 14 µM (inactive); with HL-60 it was 6.65 µM (inactive). Also, the GI50 in the experiment on SF-268 is 11.6 µM (inactive); in the experiment on MDA-MB-435, 10.8 µM (inactive); in the experiment with Malme-3M it was 21.4 µM (inactive); with T47D, > 54 µM (inactive); in the experiment on RXF 393, > 91 µM (inactive); in the experiment with SK-MEL-2 it was 27.3 µM (inactive). In the experiment with UACC-62, the GI50 was > 82.6 µM (inactive).

In the case of `CC(=O)OCC1OC(n2c(N)c(C#N)c(-c3ccc(C)cc3)c(C#N)c2=S)C(OC(C)=O)C(OC(C)=O)C1OC(C)=O` (stereo not given), the GI50 in the experiment with UACC-257 was 19.2 µM (inactive); in the experiment on CCRF-CEM, 35.2 µM (inactive); in the experiment with M14 it was 16.4 µM (inactive); in the experiment with SK-OV-3, 24.5 µM (inactive); in the experiment with BT-549, 37.3 µM (inactive); in the experiment on SF-539, 4.91 µM (inactive). Besides, the GI50 with SW-620 is 36 µM (inactive); in the experiment on NCI-H460, 31.4 µM (inactive); in the experiment with HCT-15, 38 µM; in the experiment with U-251 it was 17 µM (inactive); in the experiment with NCI-H23, 21.1 µM (inactive); with HL-60 it was 87.5 µM (inactive). In addition, the GI50 in the experiment with SF-268 was 15.2 µM (inactive); in the experiment with MDA-MB-435, 21.2 µM (inactive); in the experiment with Malme-3M, 17.8 µM (inactive); with T47D, 17.5 µM (inactive); in the experiment with RXF 393, 18.7 µM (inactive); in the experiment on SK-MEL-2 it was 15.2 µM (inactive). In addition, the GI50 in the experiment with UACC-62 was 43.5 µM (inactive).

As to `Clc1ccccc1-c1nc2cc(C34CC5CC(CC(C5)C3)C4)ccc2[nH]1`, the GI50 was 59.7 µM (inactive) in the experiment with UACC-257; 33 µM (inactive) with CCRF-CEM; 19.8 µM (inactive) in the experiment on M14; 16.1 µM (inactive) in the experiment with SK-OV-3; 20 µM (inactive) in the experiment on BT-549; 46 µM (inactive) in the experiment with SW-620. In addition, the GI50 with NCI-H460 was 30.3 µM (inactive); in the experiment with HCT-15, 41.9 µM; in the experiment on U-251 it was 7.98 µM (inactive); with MOLT-4, 79.8 µM (inactive); in the experiment with NCI-H23 it was 14.4 µM (inactive); in the experiment on HL-60, 23.7 µM (inactive). The GI50 was 41.1 µM (inactive) in the experiment on SF-268; > 100 µM (inactive) in the experiment on MDA-MB-435; 25.5 µM (inactive) with Malme-3M; 10.9 µM (inactive) in the experiment on T47D; 5.4 µM (inactive) in the experiment on RXF 393; 15 µM (inactive) with SK-MEL-2. Further, the GI50 in the experiment with UACC-62 is 13.9 µM (inactive).

Turning to `Nc1nccc(NCC2(CO)CC(CCc3ccccc3)C2)n1` (stereo not given), the GI50 was 14.3 µM (inactive) in the experiment on UACC-257; 15.1 µM (inactive) in the experiment on CCRF-CEM; 21.3 µM (inactive) in the experiment with BT-549; 15.8 µM (inactive) in the experiment on SF-539; 18.3 µM (inactive) in the experiment on SW-620; 12.3 µM (inactive) with NCI-H460. In addition, the GI50 in the experiment with HCT-15 is 18 µM; in the experiment with U-251, 13.7 µM (inactive); in the experiment on MOLT-4 it was 7.98 µM (inactive); in the experiment with NCI-H23 it was 12.2 µM (inactive); with HL-60, 6.18 µM (inactive); in the experiment with SF-268, > 10 µM (inactive). The GI50 with MDA-MB-435 was 13.7 µM (inactive); in the experiment on Malme-3M it was 13.7 µM (inactive); with T47D it was 6.52 µM (inactive); in the experiment on RXF 393 it was 15.6 µM (inactive); with SK-MEL-2, 14.5 µM (inactive); in the experiment on UACC-62, 12.6 µM (inactive).

`C=C(CCOC)CCC1CCCCC(CN(C)C)C1=O` (stereo not given): the GI50 in the experiment on CCRF-CEM, in the experiment with M14, with SK-OV-3, in the experiment with BT-549, with SW-620 and in the experiment with NCI-H460 was > 100 µM (inactive) throughout. Also, the GI50 in the experiment with HCT-15 is above 100 µM; with U-251, > 100 µM (inactive); in the experiment on MOLT-4, > 100 µM (inactive); in the experiment on NCI-H23, > 100 µM (inactive); in the experiment on HL-60, > 100 µM (inactive); in the experiment on SF-268 it was > 100 µM (inactive). Moreover, the GI50 in the experiment with MDA-MB-435, in the experiment on Malme-3M, in the experiment with T47D, with RXF 393, in the experiment with SK-MEL-2 and in the experiment on UACC-62 was > 100 µM (inactive) each time.

Regarding `CN1CCN(C2=CC(=O)c3c(O)ccc(O)c3C2=O)CC1`, the GI50 is 0.244 µM (active) with UACC-257; 0.501 µM (active) with CCRF-CEM; 0.647 µM (active) in the experiment with M14; 5.02 µM (inactive) in the experiment with SK-OV-3; 1.76 µM (inactive) in the experiment with BT-549; 1.61 µM (inactive) in the experiment on SF-539. The GI50 with SW-620 was 0.618 µM (active); in the experiment on NCI-H460 it was 1.9 µM (inactive); with U-251, 1.61 µM (inactive); in the experiment on MOLT-4, 1.01 µM (active); in the experiment on NCI-H23 it was 1.4 µM (inactive); in the experiment on HL-60 it was 0.298 µM (active). Besides, the GI50 in the experiment with SF-268 is 1.57 µM (inactive); with MDA-MB-435 it was 0.188 µM (active); in the experiment on Malme-3M, 0.228 µM (active); in the experiment with T47D, 0.69 µM (active); in the experiment with RXF 393, 1.57 µM (inactive); in the experiment with SK-MEL-2, 2.45 µM (inactive). Besides, the GI50 with UACC-62 was 1.65 µM (inactive).

With `Cc1ccc([N+](=O)[O-])c2c(NCCCN(C)C)ccnc12`, the GI50 with UACC-257 is 39.2 µM (inactive); in the experiment with CCRF-CEM, > 100 µM (inactive); with M14, > 59.2 µM (inactive); in the experiment on BT-549 it was > 100 µM (inactive); in the experiment with SF-539 it was 27.3 µM (inactive); with SW-620, 30.7 µM (inactive). Moreover, the GI50 in the experiment with NCI-H460 was 23.2 µM (inactive); with HCT-15, 35 µM; in the experiment on U-251 it was 87.3 µM (inactive); with MOLT-4 it was > 100 µM (inactive); in the experiment with NCI-H23, 28.2 µM (inactive); in the experiment with HL-60, 47.1 µM (inactive). Further, the GI50 in the experiment on SF-268 is > 95.9 µM (inactive); in the experiment on MDA-MB-435 it was 21.6 µM (inactive); in the experiment on Malme-3M, 17 µM (inactive); in the experiment with T47D it was > 100 µM (inactive); with RXF 393, > 100 µM (inactive); in the experiment on SK-MEL-2, 36.6 µM (inactive).

Regarding `ClCCN(CCCl)c1ccc(CNCCCNCc2ccc(N(CCCl)CCCl)cc2)cc1`, the GI50 with UACC-257 is 2.29 µM (inactive); in the experiment on CCRF-CEM it was 2.78 µM (inactive); in the experiment with M14, 4.7 µM (inactive); in the experiment on SK-OV-3 it was 2.61 µM (inactive); in the experiment with BT-549, 3.38 µM (inactive); with SF-539 it was 1.46 µM (inactive). Besides, the GI50 in the experiment on SW-620 is 3.03 µM (inactive); with NCI-H460, 0.402 µM (active); in the experiment with HCT-15 it was 2.47 µM; in the experiment with U-251, 1.33 µM (inactive); with NCI-H23 it was 3 µM (inactive); in the experiment on HL-60 it was 1.03 µM (active). For the same molecule, the GI50 in the experiment with SF-268 was 1.43 µM (inactive); in the experiment with MDA-MB-435, 2.69 µM (inactive); in the experiment on Malme-3M, 2.44 µM (inactive); with T47D it was 2.04 µM (inactive); in the experiment on RXF 393, 1.59 µM (inactive); in the experiment on SK-MEL-2, 2.17 µM (inactive). For the same molecule, in the experiment on UACC-62, the GI50 is 1.97 µM (inactive).

(Values after ChEMBL document CHEMBL1201862, “PubChem BioAssay data set” (2004).)
